The target of this assay is human EphA2 (Homo sapiens, UniProt P29317). The assay is described as follows: biochemical.

Starred links: 1 amine or outer side, 2 acyl side, 3 side chain; linkers in the order of their positions; H or OH if unused. Positions of bridges follow the written chain, without caps; N, C: chain ends. Non-standard residues stand in square brackets, D forms with d. Residues, ends and D or L forms follow the SMILES beside them. TATA = O=C(CC[*:1])N1CN(C(=O)CC[*:2])CN(C(=O)CC[*:3])C1; Dip = N[C@H](C(=O)O)C(c1ccccc1)c1ccccc1; 1Nal = N[C@@H](Cc1cccc2ccccc12)C(=O)O; d1Nal = N[C@H](Cc1cccc2ccccc12)C(=O)O; Hyp = O=C(O)[C@@H]1C[C@@H](O)CN1; hArg = N=C(N)NCCCC[C@H](N)C(=O)O; NMeA = CN[C@@H](C)C(=O)O

human EphA2, sequence (P29317 24-976): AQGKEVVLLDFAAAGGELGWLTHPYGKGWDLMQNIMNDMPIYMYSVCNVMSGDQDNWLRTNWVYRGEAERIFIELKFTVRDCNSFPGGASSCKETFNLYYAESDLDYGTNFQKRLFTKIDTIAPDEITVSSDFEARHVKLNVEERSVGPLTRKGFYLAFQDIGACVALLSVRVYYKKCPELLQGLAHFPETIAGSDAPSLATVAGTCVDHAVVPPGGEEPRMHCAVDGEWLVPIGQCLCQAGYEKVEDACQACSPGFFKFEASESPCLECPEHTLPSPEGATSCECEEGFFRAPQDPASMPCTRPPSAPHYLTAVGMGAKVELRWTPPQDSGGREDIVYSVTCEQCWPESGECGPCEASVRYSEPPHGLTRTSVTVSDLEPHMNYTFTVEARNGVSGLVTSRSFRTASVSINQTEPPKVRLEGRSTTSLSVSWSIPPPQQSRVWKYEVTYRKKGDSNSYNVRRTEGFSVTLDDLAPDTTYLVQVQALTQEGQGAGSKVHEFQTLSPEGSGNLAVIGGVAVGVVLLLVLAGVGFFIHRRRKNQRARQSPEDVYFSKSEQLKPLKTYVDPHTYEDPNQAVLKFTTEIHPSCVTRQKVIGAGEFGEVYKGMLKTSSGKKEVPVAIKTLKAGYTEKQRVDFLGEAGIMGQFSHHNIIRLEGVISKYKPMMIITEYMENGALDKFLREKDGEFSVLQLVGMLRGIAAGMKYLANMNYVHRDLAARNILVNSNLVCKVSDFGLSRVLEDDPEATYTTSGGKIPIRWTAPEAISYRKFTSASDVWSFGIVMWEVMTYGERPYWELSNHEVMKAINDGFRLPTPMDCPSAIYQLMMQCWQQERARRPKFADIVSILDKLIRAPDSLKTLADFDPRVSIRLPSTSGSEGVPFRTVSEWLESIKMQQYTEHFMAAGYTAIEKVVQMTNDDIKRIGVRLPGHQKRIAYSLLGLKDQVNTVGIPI
Procedure: Peptides without a fluorescent tag were tested in competition with a peptide with a fluorescent tag and a known Kd.
Peptides were diluted to an appropriate concentration in assay buffer as described in the direct binding assay with a maximum of 5% DMSO, then serially diluted 1 in 2. […] Measurements were conducted, however the gain was determined prior to the first measurement. Data analysis was in Systat Sigmaplot version 12.0 where the mP values were fit to a user defined cubic equation to generate a Ki value:
“Lig”, “KLig” and “Prot” were all defined values relating to: fluorescent peptide concentration, the Kd of the fluorescent peptide and EphA2 concentration respectively.

For the compound `CC(C)C[C@@H]1NC(=O)[C@@H]2CSCCC(=O)N3CN(CN(C3)C(=O)CCSC[C@H](NC(=O)[C@H](CC(=O)O)NC(=O)[C@H](CCCCNC(=N)N)NC(=O)[C@H](C)N)C(=O)N3C[C@H](O)C[C@H]3C(=O)N[C@@H](CC(C)C)C(=O)N[C@@H](C(C)C)C(=O)N[C@@H](CC(N)=O)C(=O)N3CCC[C@H]3C(=O)N[C@@H](CC(C)C)C(=O)N2)C(=O)CCSC[C@@H](C(N)=O)NC(=O)[C@H]([C@@H](C)O)NC(=O)[C@H](Cc2c[nH]c3ccccc23)NC(=O)[C@@H](Cc2cccc3ccccc23)NC(=O)[C@@H]2CCCN2C(=O)[C@H](CCC(=O)O)NC1=O` [BCY13118, A-[HArg]-D-Ci[HyP]LVNPLCiiLEP[d1Nal]WTCiii] (H-A[hArg]DC[Hyp]LVNPLCLEP[d1Nal]WTC-NH2; linker 4-11-18 via TATA; N-terminus and C-terminus assumed), the affinity, expressed as Ki, was 5.42 nM.
The value for `CC(C)C[C@@H]1NC(=O)[C@@H]2CSCCC(=O)N3CN(CN(C3)C(=O)CCSC[C@H](N)C(=O)N3C[C@H](O)C[C@H]3C(=O)N[C@@H](CC(C)C)C(=O)N[C@@H](C(C)C)C(=O)N[C@@H](CC(N)=O)C(=O)N3CCC[C@H]3C(=O)N[C@@H](CC(C)C)C(=O)N2)C(=O)CCSC[C@@H](C(N)=O)NC(=O)[C@H]([C@@H](C)O)NC(=O)[C@H](Cc2c[nH]c3ccccc23)NC(=O)[C@@H](CC(=O)O)NC(=O)[C@@H]2CCCN2C(=O)[C@H](Cc2cccc3ccccc23)NC1=O` [BCY13119, Ci[HyP]LVNPLCiiL[1Nal]P[dD]WTCiii] (H-C[Hyp]LVNPLCL[1Nal]P[dD]WTC-NH2; linker 1-8-15 via TATA; N-terminus and C-terminus assumed) was 2.64 nM; that for `CC(=O)N[C@H]1CSCCC(=O)N2CN3CN(C2)C(=O)CCSC[C@@H](C(=O)N[C@H](CCCCN)C(N)=O)NC(=O)[C@H]([C@@H](C)O)NC(=O)[C@H](Cc2c[nH]c4ccccc24)NC(=O)[C@@H](CC(=O)O)NC(=O)[C@@H]2CCCN2C(=O)[C@H](C(c2ccccc2)c2ccccc2)NC(=O)[C@H](CC(C)C)NC(=O)[C@H](CSCCC3=O)NC(=O)[C@H](CC(C)C)NC(=O)[C@@H]2CCCN2C(=O)[C@H](CC(N)=O)NC(=O)[C@H](C(C)C)NC(=O)[C@H](CC(C)C)NC(=O)[C@@H]2C[C@@H](O)CN2C1=O` [BCY13120, Ac-Ci[HyP]LVNPLCiiL[3,3-DPA]P[dD]WTCiii-[dK]] (Ac-C[Hyp]LVNPLCL[Dip]P[dD]WTC[dK]-NH2; linker 1-8-15 via TATA; C-terminus assumed) was 0.916 nM; that for `CN[C@@H](C)C(=O)N[C@@H](CCCCNC(=N)N)C(=O)N[C@@H](CC(=O)O)C(=O)N[C@H]1CSCCC(=O)N2CN3CN(C2)C(=O)CCSC[C@H](NC(=O)[C@H](CC(C)C)NC(=O)[C@@H]2CCCN2C(=O)[C@H](CC(N)=O)NC(=O)[C@H](C(C)C)NC(=O)[C@H](CC(C)C)NC(=O)[C@@H]2C[C@@H](O)CN2C1=O)C(=O)N[C@@H](CC(C)C)C(=O)N[C@@H](Cc1c[nH]cn1)C(=O)N1CCC[C@H]1C(=O)N[C@H](CC(=O)O)C(=O)N[C@@H](Cc1c[nH]c2ccccc12)C(=O)N[C@@H](CCCCNC(=N)N)C(=O)N[C@H](C(N)=O)CSCCC3=O` [BCY13121, [NMeAla]-[HArg]-D-Ci[HyP]LVNPLCiiLHP[dD]W[HArg]Ciii] (H-[NMeA][hArg]DC[Hyp]LVNPLCLHP[dD]W[hArg]C-NH2; linker 4-11-18 via TATA; N-terminus and C-terminus assumed) was 1.49 nM.

The Ki is a dissociation constant, usually derived from enzyme kinetics or from competition with a known ligand. Lower therefore signals higher affinity.

Source of the values: patent publication US12570695B2, “Bicyclic peptide ligands specific for EphA2” (priority 2019, dated 2026).
